Data: patent US20240238423A9, “TETRAHYDROISOQUINOLINE HETEROBIFUNCTIONAL BCL-XL DEGRADERS” (Treeline Biosciences, Inc., priority 2022, published 2024)
Like-named read-outs stand apart in the source and are kept apart here.

Target: T1, Human BCL-XL protein (N-terminal HiBiT tagged BCL-XL in HT1080 cells) (Homo sapiens, UniProt Q07817)
T1 construct: expressed in transfected cells; host or cells: HT-1080 (ATCC CCL-121), stably transduced with lentivirus pLV-UBC-N-HiBiT-BCL-XL-PGK-puro and selected with puromycin
T1 sequence (Q07817 whole entry): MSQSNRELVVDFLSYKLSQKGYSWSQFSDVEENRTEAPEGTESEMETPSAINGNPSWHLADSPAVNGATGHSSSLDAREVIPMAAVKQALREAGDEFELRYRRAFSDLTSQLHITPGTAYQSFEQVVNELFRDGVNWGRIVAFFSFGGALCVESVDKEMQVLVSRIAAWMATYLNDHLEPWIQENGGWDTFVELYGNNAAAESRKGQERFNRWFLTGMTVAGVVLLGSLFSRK
Test: HiBiT based degradation assay
Assay type: cell-based
Details: HT1080 cells expressing HiBiT-BCL-XL; for DC50: BCL-XL degradation
Method in brief: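 This HiBiT degradation assay measured loss of BCL-XL in HT1080 cells that stably express an N-terminal HiBiT-BCL-XL fusion delivered by lentivirus. Cells were added to compound-spotted 384-well plates, and luminescence was read on a PHERAstar FSX reader. Signal was expressed relative to DMSO controls, curves were fitted by four-parameter logistic regression, and for hook-shaped curves the Ymin point served as the bottom plateau when calculating EC50.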

[1] = BCL-XL degradation normalized with DMSO control, 24 h

Row | SMILES | Ymin (24 h) [1] | DC50 (24 h, read-out: EC50 (24 h)) | Ymin (6 h) (BCL-XL degradation normalized with DMSO control, 6 h) | DC50 (6 h, read-out: EC50 (6 h))
1 | Cn1nc(C2CCC(=O)NC2=O)c2ccc(N3CCN(CCC[C@H]4CC[C@H](Oc5cccc(-c6ccc(N7CCc8cccc(C(=O)Nc9nc%10ccccc%10s9)c8C7)nc6C(=O)O)c5C(F)(F)F)CC4)CC3)cc21 (some centres unmarked) [Compound 328a, 6-(8-(benzo[d]thiazol-2-ylcarbamoyl)-3,4-dihydroisoquinolin-2(1H)-yl)-3-(3-(((1s,4r)-4-(3-(4-(3-(2,6-dioxopiperidin-3-yl)-1-methyl-1H-indazol-6-yl)piperazin-1-yl)propyl)cyclohexyl)oxy)-2-(trifluoromethyl)phenyl)picolinic acid] | A (Ymin < 50%) | < 0.1 µM |  | 
2 | Cc1c(O[C@H]2CC[C@H](CCN3CCN(c4ccc5c(C6CCC(=O)NC6=O)nn(C)c5c4)CC3)CC2)cccc1-c1ccc(N2CCc3cccc(C(=O)Nc4nc5ccccc5s4)c3C2)nc1C(=O)O (some centres unmarked) [Compound 211a, 6-(8-(benzo[d]thiazol-2-ylcarbamoyl)-3,4-dihydroisoquinolin-2(1H)-yl)-3-(3-(((1r,4r)-4-(2-(4-(3-(2,6-dioxopiperidin-3-yl)-1-methyl-1H-indazol-6-yl)piperazin-1-yl)ethyl)cyclohexyl)oxy)-2-methylphenyl)picolinic acid] | B (50% ≤ Ymin < 70%) | < 0.1 µM |  | 
3 | Cc1c(O[C@H]2CC[C@H](CC(F)(F)CN3CCN(c4cccc5c(C6CCC(=O)NC6=O)nn(C)c45)CC3)CC2)cccc1-c1ccc(N2CCc3cccc(C(=O)Nc4nc5ccccc5s4)c3C2)nc1C(=O)O (some centres unmarked) [Compound 168a, 6-(8-(benzo[d]thiazol-2-ylcarbamoyl)-3,4-dihydroisoquinolin-2(1H)-yl)-3-(3-(((1r,4r)-4-(3-(4-(3-(2,6-dioxopiperidin-3-yl)-1-methyl-1H-indazol-7-yl)piperazin-1-yl)-2,2-difluoropropyl)cyclohexyl)oxy)-2-methylphenyl)picolinic acid] | B (50% ≤ Ymin < 70%) | < 0.1 µM |  | 
4 | Cc1c(O[C@H]2CC[C@@H](CCCN3CCN(c4cccc5c(C6CCC(=O)NC6=O)nn(C)c45)CC3)CC2)cccc1-c1ccc(N2CCc3cccc(C(=O)Nc4nc5ccccc5s4)c3C2)nc1C(=O)O (some centres unmarked) [Compound 147b, 6-(8-(benzo[d]thiazol-2-ylcarbamoyl)-3,4-dihydroisoquinolin-2(1H)-yl)-3-(3-(((1r,4s)-4-(3-(4-(3-(2,6-dioxopiperidin-3-yl)-1-methyl-1H-indazol-7-yl)piperazin-1-yl)propyl)cyclohexyl)oxy)-2-methylphenyl)picolinic acid] | B (50% ≤ Ymin < 70%) | < 0.1 µM |  | 
5 | Cc1c(OCCC[C@H]2CCN(CC(=O)Nc3ccc4c(C5CCC(=O)NC5=O)nn(C)c4c3)[C@H](C)C2)cccc1-c1ccc(N2CCc3cccc(C(=O)Nc4nc5ccccc5s4)c3C2)nc1C(=O)O (stereo partly drawn) [Compound 343b, 6-[8-(1,3-benzothiazol-2-ylcarbamoyl)-3,4-dihydro-1H-isoquinolin-2-yl]-3-[3-[3-[(2R,4S)-1-[2-[[3-(2,6-dioxo-3-piperidyl)-1-methyl-indazol-6-yl]amino]-2-oxo-ethyl]-2-methyl-4-piperidyl]propoxy]-2-methyl-phenyl]pyridine-2-carboxylic acid] | A (Ymin < 50%) | < 0.1 µM |  | 
6 | Cc1c(OCCC2CCN(CCCC3CCN(c4cccc5c(C6CCC(=O)NC6=O)nn(C)c45)CC3)CC2)cccc1-c1ccc(N2CCc3cccc(C(=O)Nc4nc5ccccc5s4)c3C2)nc1C(=O)O (centres unmarked) [Compound 288, 6-[8-(1,3-benzothiazol-2-ylcarbamoyl)-3,4-dihydro-1H-isoquinolin-2-yl]-3-[3-[2-[1-[3-[1-[3-(2,6-dioxo-3-piperidyl)-1-methyl-indazol-7-yl]-4-piperidyl]propyl]-4-piperidyl]ethoxy]-2-methyl-phenyl]pyridine-2-carboxylic acid] | A (Ymin < 50%) | < 0.1 µM |  | 
7 | Cc1c(OCCCC2CCN([C@@H](C)C(=O)Nc3ccc4c(C5CCC(=O)NC5=O)nn(C)c4c3)CC2)cccc1-c1ccc(N2CCc3cccc(C(=O)Nc4nc5ccccc5s4)c3C2)nc1C(=O)O (stereo partly drawn) [Compound 164a, 6-(8-(benzo[d]thiazol-2-ylcarbamoyl)-3,4-dihydroisoquinolin-2(1H)-yl)-3-(3-(3-(1-((2S)-1-((3-(2,6-dioxopiperidin-3-yl)-1-methyl-1H-indazol-6-yl)amino)-1-oxopropan-2-yl)piperidin-4-yl)propoxy)-2-methylphenyl)picolinic acid] | A (Ymin < 50%) | < 0.1 µM |  | 
8 | Cc1c(OCCCCC2CCN(CC3CCN(c4ccc5c(C6CCC(=O)NC6=O)nn(C)c5c4)CC3)CC2)cccc1-c1ccc(N2CCc3cccc(C(=O)Nc4nc5ccccc5s4)c3C2)nc1C(=O)O (centres unmarked) [Compound 257, 6-[8-(1,3-benzothiazol-2-ylcarbamoyl)-3,4-dihydro-1H-isoquinolin-2-yl]-3-[3-[4-[1-[[1-[3-(2,6-dioxo-3-piperidyl)-1-methyl-indazol-6-yl]-4-piperidyl]methyl]-4-piperidyl]butoxy]-2-methyl-phenyl]pyridine-2-carboxylic acid] | A (Ymin < 50%) | < 0.1 µM |  | 
9 | Cc1c(Oc2ccc(CCN3CCN(c4ccc5c(C6CCC(=O)NC6=O)nn(C)c5c4)CC3)cc2)cccc1-c1ccc(N2CCc3cccc(C(=O)Nc4nc5ccccc5s4)c3C2)nc1C(=O)O (centres unmarked) [Compound 208, 6-[8-(1,3-benzothiazol-2-ylcarbamoyl)-3,4-dihydro-1H-isoquinolin-2-yl]-3-[3-[4-[2-[4-[3-(2,6-dioxo-3-piperidyl)-1-methyl-indazol-6-yl]piperazin-1-yl]ethyl]phenoxy]-2-methyl-phenyl]pyridine-2-carboxylic acid] | A (Ymin < 50%) | < 0.1 µM |  | 
10 | Cn1nc(C2CCC(=O)NC2=O)c2ccc(N3CCN(CCC[C@H]4CC[C@H](Oc5cccc(-c6ccc(N7CCc8cccc(C(=O)Nc9nc%10ccccc%10s9)c8C7)nc6C(=O)O)c5)CC4)CC3)cc21 (some centres unmarked) [Compound 330a, 6-(8-(benzo[d]thiazol-2-ylcarbamoyl)-3,4-dihydroisoquinolin-2(1H)-yl)-3-(3-(((1s,4r)-4-(3-(4-(3-(2,6-dioxopiperidin-3-yl)-1-methyl-1H-indazol-6-yl)piperazin-1-yl)propyl)cyclohexyl)oxy)phenyl)picolinic acid] | A (Ymin < 50%) | < 0.1 µM |  | 
11 | Cc1c(O[C@H]2CC[C@H](CC(=O)N3CCN(c4cccc5c(C6CCC(=O)NC6=O)nn(C)c45)CC3)CC2)cccc1-c1ccc(N2CCc3cccc(C(=O)Nc4nc5ccccc5s4)c3C2)nc1C(=O)O (some centres unmarked) [Compound 182a, 6-(8-(benzo[d]thiazol-2-ylcarbamoyl)-3,4-dihydroisoquinolin-2(1H)-yl)-3-(3-(((1r,4r)-4-(2-(4-(3-(2,6-dioxopiperidin-3-yl)-1-methyl-1H-indazol-7-yl)piperazin-1-yl)-2-oxoethyl)cyclohexyl)oxy)-2-methylphenyl)picolinic acid] | B (50% ≤ Ymin < 70%) | < 0.1 µM |  | 
12 | Cc1c(OCCCC2CCN(CCC3CCN(c4ccc5c(C6CCC(=O)NC6=O)nn(C)c5c4)CC3)CC2)cccc1-c1ccc(N2CCc3cccc(C(=O)Nc4nc5ccccc5s4)c3C2)nc1C(=O)O (centres unmarked) [Compound 192, 6-(8-(benzo[d]thiazol-2-ylcarbamoyl)-3,4-dihydroisoquinolin-2(1H)-yl)-3-(3-(3-(1-(2-(1-(3-(2,6-dioxopiperidin-3-yl)-1-methyl-1H-indazol-6-yl)piperidin-4-yl)ethyl)piperidin-4-yl)propoxy)-2-methylphenyl)picolinic acid] | A (Ymin < 50%) | < 0.1 µM |  | 
13 | Cc1cc(OCCCN2CCN(CC(=O)N3CCN(c4ccc5c(C6CCC(=O)NC6=O)nn(C)c5c4)CC3)CC2)ccc1-c1ccc(N2CCc3cccc(C(=O)Nc4nc5ccccc5s4)c3C2)nc1C(=O)O (centres unmarked) [Compound 153, 6-(8-(Benzo[d]thiazol-2-ylcarbamoyl)-3,4-dihydroisoquinolin-2(1H)-yl)-3-(4-(3-(4-(2-(4-(3-(2,6-dioxopiperidin-3-yl)-1-methyl-1H-indazol-6-yl)piperazin-1-yl)-2-oxoethyl)piperazin-1-yl)propoxy)-2-methylphenyl)picolinic acid] | A (Ymin < 50%) | < 0.1 µM | A (Ymin < 50%) | < 0.1 µM
14 | Cc1cc(O[C@@H](C)CCC2CCN(CC(=O)Nc3ccc4c(C5CCC(=O)NC5=O)nn(C)c4c3)CC2)ccc1-c1ccc(N2CCc3cccc(C(=O)Nc4nc5ccccc5s4)c3C2)nc1C(=O)O (stereo in doubt) [Compound 276b, 6-[8-(1,3-benzothiazol-2-ylcarbamoyl)-3,4-dihydro-1H-isoquinolin-2-yl]-3-[4-[(1S)-3-[1-[2-[[3-(2,6-dioxo-3-piperidyl)-1-methyl-indazol-6-yl]amino]-2-oxo-ethyl]-4-piperidyl]-1-methyl-propoxy]-2-methyl-phenyl]pyridine-2-carboxylic acid] | A (Ymin < 50%) | < 0.1 µM |  | 
15 | Cc1c(OCCCC2CCN(CCN3CCC(c4cccc5c(C6CCC(=O)NC6=O)nn(C)c45)CC3)CC2)cccc1-c1ccc(N2CCc3cccc(C(=O)Nc4nc5ccccc5s4)c3C2)nc1C(=O)O (centres unmarked) [Compound 256, 6-[8-(1,3-benzothiazol-2-ylcarbamoyl)-3,4-dihydro-1H-isoquinolin-2-yl]-3-[3-[3-[1-[2-[4-[3-(2,6-dioxo-3-piperidyl)-1-methyl-indazol-7-yl]-1-piperidyl]ethyl]-4-piperidyl]propoxy]-2-methyl-phenyl]pyridine-2-carboxylic acid] | A (Ymin < 50%) | < 0.1 µM |  | 
